pIC50: −log10 of the molar value. Like-named read-outs stand apart in the source and are kept apart here. One block for each compound: values may come before it.
What was measured:
[1] = test system: Calpain activity in SH-SY5Y cells (SBDP-150); experiment: SH-SY5Y Spectrin western blot assay (SBDP-150 breakdown product, A23187-induced); format: cell-based; details: Homo sapiens, SH-SY5Y cells, read-out: SH-SY5Y Spectrin IC50
human calpain 9 = biological target: T1, human calpain 9 (Homo sapiens, UniProt O14815); experiment: Calpain binding: crystal structure interaction distances, human calpain 9; details: for Interaction Distances P1-Gly95 / Interaction Distances P1-Gly189 / Interaction Distances P1-Lys188 / Interaction Distances P1-Ser242 / Interaction Distances P2-Ala255 / Interaction Distances P2-Gly190 / Interaction Distances P2-Gly253 / Interaction Distances P2-His254 / Interaction Distances P2-Phe233 / Interaction Distances P3-Gly189 / Interaction Distances P3-Gly190 / Interaction Distances P3-Ser191: non-polar interactions with human calpain 9; for Interaction Distances R^10-Gly253 / Interaction Distances R^11-Gly190 / Interaction Distances R^12-His254 / Interaction Distances R^13-Cys97 / Interaction Distances R^13-Gln91: polar interactions with human calpain 9
T1 construct: human calpain 9, residues 27-347, was over expressed in E. coli BL21 (DE3); hexa-histidine (N); made in house; host or cells: E. coli BL21 (DE3)
T1 sequence (O14815 27-347): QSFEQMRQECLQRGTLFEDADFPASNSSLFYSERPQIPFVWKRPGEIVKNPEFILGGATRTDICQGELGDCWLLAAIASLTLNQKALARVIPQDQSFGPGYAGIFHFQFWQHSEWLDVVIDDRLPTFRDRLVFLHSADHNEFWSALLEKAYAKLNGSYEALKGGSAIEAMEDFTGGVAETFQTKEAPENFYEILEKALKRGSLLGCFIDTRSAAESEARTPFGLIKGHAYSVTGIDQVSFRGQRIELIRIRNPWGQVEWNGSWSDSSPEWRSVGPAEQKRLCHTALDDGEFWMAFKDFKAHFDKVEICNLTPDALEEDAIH
Experimental: Calpain 9 Protein Preparation: N-terminally hexa-histidine-tagged human calpain 9, residues 27-347, was over expressed in E. coli BL21 (DE3) and purified via Ni-NTA and size-exclusion chromatography with yields >10 mg/liter of culture and >99% purity. The calpain 9 sequence is accession number 014815 at uniprot.org.
Calpain 9 Crystallization: A 10 mg/ml solution of rat calpain 1 or human calpain 9 (obtained as described above) was prepared in 50 mM tris (pH 8), 0.5 M NaCl, 1 mM EDTA, 1 mM CaCl2), and 1 mM beta-mercaptoethanol against MCSG1 screen condition C2 (Anatrace, Maumee, Ohio) containing 0.2 M LiSO4, 0.1 M bis-tris (pH 5.5), and 25% PEG 3350. The solution contained 2.5 mM of test compound supplemented with 20% ethylene glycol as a cryo-protectant. The bound protein was crystallized using vapor diffusion, sitting drop, at […]. The space group was P 41 21 2, with unit cell dimensions of 97.2 Å, 97.2 Å, 173.4 Å.
Calpain 9 Crystallography data collection and refinement: Data was collected at the APS synchrotron, beamline 21-ID-F at […]. Reflections were collect between 45.0-2.1 Å with completeness of 100%. Reflection data was analyzed using XDS and Xscale (Heidelberg, Germany). Structure was solved using molecular replacement and was refined with PHENIX (Berkeley, Calif.) to an R value of 0.168, Rfree=0.210.
Key interactions between test compound moieties (with reference to the variables of Formula II) and calpain 1 or calpain 9 residues were determined as set forth in Tables 4-7 below.

[2] = test system: Bleomycin-induced pulmonary fibrosis; experiment: Bleomycin-induced pulmonary fibrosis in mice (14 d); format: in vivo; design: concentration or dose not given beside the values
Source text: The method for inducing pulmonary fibrosis in mice is described in Current Protocols in Pharmacology: 5.46.1, entitled “Mouse Models of Bleomycin-induced Pulmonary Fibrosis”. In order to induce pulmonary fibrosis, 6-8 week old C57B1/6 mice or Wistar rats are instilled once oropharyngeally with ˜1.5 U/kg of bleomycin sulfate (Calbiochem, Billerica, Mass.). Briefly, for oropharyngeal administration of bleomycin, mice or rats are anesthetized with isofluorane and then suspended on its back at a˜60 degree angle on an inclined surface with a rubber band running under the upper incisors. The airway is opened while securing the tongue with one arm of padded forceps and bleomycin is administered into the back of the oral cavity with a syringe. The animal's tongue and mouth were held open until the liquid disappeared from the oral cavity. The animal was then returned to its cage and monitored until fully recovered from the anesthesia. The study is terminated on day 14-28 for oropharyngeally administered bleomycin in mice and rats. All animals are euthanized at the termination of the studies by cervical dislocation for gross necropsy, and blood collected by cardiac puncture. The lungs from each animal are dissected from the animal and weighed. The BAL cells and fluid are collected by lavaging the lung twice with 0.5 ml Hanks Balanced Salt Solution (HBSS; VWR, Radnor, Pa.). After collection of BAL cells and fluid, lungs are dissected and removed from each animal. Whole lungs are inflated with 10% NBF and then fixed in 10% NBF for histology. Severity of fibrosis in the lungs is evaluated using a modified Ashcroft score (Hubner, Biotechniques, 2008) and subjective fibrosis scores. Lung sections were graded by averaging 5 microscopic fields at 20× on an Ashcroft scale as follows: Grade 0=normal lung; Grade 1=minimally detectable thickening of alveolar walls; Grade 2=Mild thickening of alveolar walls. Grade 3=moderate contiguous thickening of walls with fibrous nodules; Grade 4=Thickened septae and confluent fibrotic masses that total less than 10% of microscopic field. Grade 5=increased fibrosis with definite damage to lung structure and formation of fibrous bands or small fibrous masses between 10 and 50% of microscopic field; Grade 6=Large contiguous fibrotic masses consolidating more than 50% of microscopic field. Grade 7=severe distortion of structure and large fibrous areas; Grade 8=total fibrous obliteration of lung within microscopic field. Each slide was examined at 20× magnification and the score for 5 separate representative fields was averaged for each animal. Subjective scores (H&E and Trichrome-stained slides) were evaluated at 2× magnification for an overall assessment of pathologic change. A score of 0=no detectible findings to 5=complete involvement of consolidation. Scores in each group were averaged and standard error was calculated using Excel 2010. Dense, organized inflammatory exudates were scored as fibrosis. Other tissues were evaluated microscopically and scored routinely.

[3] = Column D, A23187-induced SBDP-150
[4] = A23187-induced SBDP-150, western blot

pIC50 [1, 3]: > 5.00 | Interaction Distances P1-Gly95 (human calpain 9): 4.0 Å | Interaction Distances P1-Gly189 (human calpain 9): 3.5 Å | Interaction Distances P1-Lys188 (human calpain 9): 3.8 Å | Interaction Distances P1-Ser242 (human calpain 9): 3.6 Å | Interaction Distances P2-Ala255 (human calpain 9): 4.3 Å | Interaction Distances P2-Gly190 (human calpain 9): 3.3 Å | Interaction Distances P2-Gly253 (human calpain 9): 3.1 Å | Interaction Distances P2-His254 (human calpain 9): 4.2 Å | Interaction Distances P2-Phe233 (human calpain 9): 3.3 Å | Interaction Distances P3-Gly189 (human calpain 9): 3.7 Å | Interaction Distances P3-Gly190 (human calpain 9): 3.5 Å | Interaction Distances P3-Ser191 (human calpain 9): 4.4 Å | Interaction Distances R^10-Gly253 (human calpain 9): 3.2 Å | Interaction Distances R^11-Gly190 (human calpain 9): 2.9 Å | Interaction Distances R^12-His254 (human calpain 9): 2.7 Å | Interaction Distances R^13-Cys97 (human calpain 9): 2.9 Å | Interaction Distances R^13-Gln91 (human calpain 9): 2.8 Å
SMILES: Cn1cc(C(=O)N[C@@H](Cc2ccccc2)C(=O)C(N)=O)c(-c2ccccc2)n1 [Compound 32, (S)—N-(4-amino-3,4-dioxo-1-phenylbutan-2-yl)-1-methyl-3-phenyl-1H-pyrazole-4-carboxamide]

pIC50 [1, 3]: 4.60 to 5.00 | Interaction Distances P1-Gly95 (human calpain 9): 3.6 Å | Interaction Distances P1-Gly189 (human calpain 9): 3.4 Å | Interaction Distances P1-Lys188 (human calpain 9): 3.7 Å | Interaction Distances P1-Ser242 (human calpain 9): 3.7 Å | Interaction Distances P2-Ala255 (human calpain 9): 3.9 Å | Interaction Distances P2-Gly190 (human calpain 9): 3.0 Å | Interaction Distances P2-Gly253 (human calpain 9): 3.4 Å | Interaction Distances P2-His254 (human calpain 9): 4.2 Å | Interaction Distances P2-Phe233 (human calpain 9): 4.4 Å | Interaction Distances P3-Gly189 (human calpain 9): 4.0 Å | Interaction Distances P3-Gly190 (human calpain 9): 3.3 Å | Interaction Distances P3-Ser191 (human calpain 9): 4.2 Å | Interaction Distances R^10-Gly253 (human calpain 9): 2.9 Å | Interaction Distances R^11-Gly190 (human calpain 9): 3.2 Å | Interaction Distances R^12-His254 (human calpain 9): 2.5 Å | Interaction Distances R^13-Cys97 (human calpain 9): 3.0 Å | Interaction Distances R^13-Gln91 (human calpain 9): 2.8 Å
SMILES: NC(=O)C(=O)[C@H](Cc1ccccc1)NC(=O)c1snnc1-c1ccccc1 [Compound 44, (S)—N-(4-amino-3,4-dioxo-1-phenylbutan-2-yl)-4-phenyl-1,2,3-thiadiazole-5-carboxamide]

pIC50 [1, 3]: > 5.00
SMILES: NC(=O)C(=O)[C@H](Cc1ccccc1)NC(=O)c1cnoc1-c1ccccc1 [Compound 60, (S)—N-(4-amino-3,4-dioxo-1-phenylbutan-2-yl)-5-phenylisoxazole-4-carboxamide]
% reduction compared to vehicle [2]: −24%

pIC50 [1, 3]: 4.60 to 5.00
SMILES: NC(=O)C(=O)[C@H](Cc1ccccc1)NC(=O)c1cn(C2CC2)nc1-c1ccccc1 [Compound 250, (S)—N-(4-amino-3,4-dioxo-1-phenylbutan-2-yl)-1-cyclopropyl-3-phenyl-1H-pyrazole-4-carboxamide]

pIC50 [1, 3]: > 5.00 | Interaction Distances P1-Gly95 (human calpain 9): 3.7 Å | Interaction Distances P1-Gly189 (human calpain 9): 3.7 Å | Interaction Distances P1-Lys188 (human calpain 9): 4.4 Å | Interaction Distances P1-Ser242 (human calpain 9): 4.0 Å | Interaction Distances P2-Ala255 (human calpain 9): 4.1 Å | Interaction Distances P2-Gly190 (human calpain 9): 3.2 Å | Interaction Distances P2-Gly253 (human calpain 9): 2.9 Å | Interaction Distances P2-His254 (human calpain 9): 4.2 Å | Interaction Distances P2-Phe233 (human calpain 9): 3.3 Å | Interaction Distances P3-Gly189 (human calpain 9): 3.8 Å | Interaction Distances P3-Gly190 (human calpain 9): 3.4 Å | Interaction Distances P3-Ser191 (human calpain 9): 3.8 Å | Interaction Distances R^10-Gly253 (human calpain 9): 2.9 Å | Interaction Distances R^11-Gly190 (human calpain 9): 3.2 Å | Interaction Distances R^12-His254 (human calpain 9): 2.4 Å | Interaction Distances R^13-Cys97 (human calpain 9): 3.1 Å | Interaction Distances R^13-Gln91 (human calpain 9): 2.9 Å
SMILES: CCCC[C@H](NC(=O)c1oc(C)nc1-c1ccccc1)C(=O)C(N)=O [Compound 265, (S)—N-(1-amino-1,2-dioxoheptan-3-yl)-2-methyl-4-phenyloxazole-5-carboxamide]

pIC50 [1, 4]: > 5.00
SMILES: Cc1nc(-c2ccccc2)c(C(=O)NC(Cc2ccccc2)C(=O)C(N)=O)o1 (stereo not drawn) [Compound 357, N-(4-amino-3,4-dioxo-1-phenylbutan-2-yl)-2-methyl-4-phenyloxazole-5-carboxamide]
% reduction compared to vehicle [2]: −13%

pIC50 [1, 4]: > 5.00
SMILES: NC(=O)C(=O)C(Cc1ccccc1)NC(=O)c1cn(C(F)F)nc1-c1ccccc1 (stereo not drawn) [Compound 403, N-(4-amino-3,4-dioxo-1-phenylbutan-2-yl)-1-(difluoromethyl)-3-phenyl-1H-pyrazole-4-carboxamide]
% reduction compared to vehicle [2]: −29%

pIC50 [1, 4]: > 5.00
SMILES: Cc1nc(-c2cccc(F)c2)c(C(=O)NC(Cc2ccccc2)C(=O)C(N)=O)o1 (stereo not drawn) [Compound 404, N-(4-amino-3,4-dioxo-1-phenylbutan-2-yl)-4-(3-fluorophenyl)-2-methyloxazole-5-carboxamide]
% reduction compared to vehicle [2]: −24%

SMILES: Cc1nc(-c2ccccc2F)c(C(=O)NC(Cc2ccccc2)C(=O)C(N)=O)o1 (stereo not drawn) [Compound 405, N-(4-amino-3,4-dioxo-1-phenylbutan-2-yl)-4-(2-fluorophenyl)-2-methyloxazole-5-carboxamide]
% reduction compared to vehicle [2]: −33%

pIC50 [1, 4]: 4.60 to 5.00
SMILES: NC(=O)C(=O)C(Cc1ccccc1)NC(=O)c1cn(C2CC2)nc1-c1ccccc1 (stereo not drawn) [Compound 406, N-(4-amino-3,4-dioxo-1-phenylbutan-2-yl)-1-cyclopropyl-3-phenyl-1H-pyrazole-4-carboxamide]
% reduction compared to vehicle [2]: −25%

pIC50 [1, 4]: 4.60 to 5.00
SMILES: Cn1cc(C(=O)NC(Cc2ccccc2)C(=O)C(N)=O)c(-c2ccccc2F)n1 (stereo not drawn) [Compound 484, N-(4-amino-3,4-dioxo-1-phenylbutan-2-yl)-3-(2-fluorophenyl)-1-methyl-1H-pyrazole-4-carboxamide]
% reduction compared to vehicle [2]: −35%

pIC50 [1, 4]: 4.60 to 5.00
SMILES: Cl.Cn1cc(C(=O)NC(Cc2ccccc2)C(=O)C(N)=O)c(-c2cccc(F)c2)n1 (stereo not drawn) [Compound 485, N-(4-amino-3,4-dioxo-1-phenylbutan-2-yl)-3-(3-fluorophenyl)-1-methyl-1H-pyrazole-4-carboxamide hydrochloride]
% reduction compared to vehicle [2]: −41%

pIC50 [1, 4]: 4.60 to 5.00
SMILES: Cc1cc(C(=O)NC(Cc2ccccc2)C(=O)C(N)=O)n(-c2ccccn2)n1 (stereo not drawn) [Compound 495, N-(4-amino-3,4-dioxo-1-phenylbutan-2-yl)-3-methyl-1-(pyridin-2-yl)-1H-pyrazole-5-carboxamide]
% reduction compared to vehicle [2]: −27%

Reference: patent US11339130B1 (Blade Therapeutics, Inc., priority 2016, dated 2022)
